From paper PMC5750217 (Nature Communications, 2018)

Target: T1, ASCT2 (Homo sapiens, UniProt Q15758)
T1 sequence (Q15758 1-541): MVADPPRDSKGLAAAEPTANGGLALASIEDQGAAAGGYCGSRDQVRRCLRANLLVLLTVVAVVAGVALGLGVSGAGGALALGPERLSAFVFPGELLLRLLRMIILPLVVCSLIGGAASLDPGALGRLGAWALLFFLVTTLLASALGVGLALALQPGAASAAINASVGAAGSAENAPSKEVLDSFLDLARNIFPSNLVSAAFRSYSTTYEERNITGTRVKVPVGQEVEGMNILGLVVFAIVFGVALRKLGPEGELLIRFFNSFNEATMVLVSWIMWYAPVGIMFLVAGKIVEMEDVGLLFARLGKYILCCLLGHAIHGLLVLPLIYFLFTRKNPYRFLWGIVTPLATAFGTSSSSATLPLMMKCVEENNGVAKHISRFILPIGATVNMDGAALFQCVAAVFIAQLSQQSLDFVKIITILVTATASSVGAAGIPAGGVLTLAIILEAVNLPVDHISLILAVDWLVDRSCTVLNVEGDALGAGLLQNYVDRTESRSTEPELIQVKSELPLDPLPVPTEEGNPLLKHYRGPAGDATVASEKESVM
Test: Two electrode voltage clamp, substrate-activated anion current in oocytes expressing ASCT2
Type: cell-based
Method: All chemicals were obtained from Sigma unless otherwise stated. Stage V oocytes were harvested from female Xenopus laevis (frogs) which were obtained from Nasco (Fort Alkinson, USA). Frogs were anaesthetised with 6.5 mM tricaine neutralised with 7.14 mM sodium bicarbonate. After making an incision in the abdomen of the frog, ovarian sacs were removed and stored in OR-2 buffer (82.5 mM NaCl, 2 mM KCl, 1 mM MgCl2, 5 mM hemisodium HEPES, pH 7.5). This surgical procedure follows a protocol (#2016/970) approved by the University of Sydney Animal Ethics Committee under the Australian Code of Practice for the Care and Use of Animals for Scientific Purposes. […]
After 2–4 days of microinjection, current recordings were made using the two electrode voltage clamp technique with a Geneclamp 500 amplifier (Axon Instruments, Foster City, CA) interfaced with a MacLab 2e chart recorder (ADI Instruments, Sydney, Australia) using the chart software, and a Digidata 1322A (Axon Instruments) controlled by an IBM-compatible computer using the pClamp software (version 10, Molecular Devices, Union City, CA). […] Current–voltage relationships were calculated by subtracting steady state current measurements in the absence of substrate from corresponding current measurements in the presence of substrate. […]

With N[C@@H](CCC(=O)Nc1ccc([N+](=O)[O-])cc1)C(=O)O [GPNA, glutamyl-p-nitroanilide] the “GPNA % inhibition of L-serine activated current” value (GPNA co-applied with EC50 of L-serine, 300 µM GPNA / 1 mM GPNA (Table 1 footnote)) was 90 ± 5% and the IC50 (co-applied with EC50 of L-serine, read-out: IC50 for inhibition of L-serine activated current) was 90 ± 20 µM.
